Laboratory results reported in US8802597B2, “Herbicidal pyrimidines” (E I du Pont de Nemours and Company, priority 2003, dated 2014).
Where two headings read alike, the source gives them in different places.

How the values were obtained:
Assay type in all cases: in vivo
[1] = tested on: blackgrass (Alopecurus myosuroides); test: Test B postemergence; conditions: Alopecurus myosuroides, post-emergence, scale 0 to 100 (0 no effect, 100 complete control), read-out: Blackgrass plant response rating
Procedure, shortened: (§1)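 Greenhouse whole-plant test; surfactant-containing non-phytotoxic solvent formulation; pre- and postemergence applications made simultaneously; post plants 2–18 cm, 1- to 4-leaf; visual scoring at 13–15 days on 0–100 scale relative to controls.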

[2] = tested on: wild oat (Avena fatua); test: Test B postemergence; conditions: Avena fatua, post-emergence, scale 0 to 100 (0 no effect, 100 complete control), read-out: Oat, Wild plant response rating
Procedure, shortened: as §1

[3] = tested on: cocklebur (Xanthium strumarium); test: Test B pre/postemergence; conditions: Xanthium strumarium; for pest or weed control at 4 g/ha: 4 g ai/ha; for pest or weed control at 62 g/ha: 62 g ai/ha
Procedure, shortened: as §1

[4] = tested on: velvetleaf (Abutilon theophrasti); test: Test B pre/postemergence; conditions: Abutilon theophrasti; for pest or weed control at 4 g/ha: 4 g ai/ha; for pest or weed control at 62 g/ha: 62 g ai/ha
Procedure, shortened: as §1

[5] = tested on: lambsquarters (Chenopodium album); test: Test B pre/postemergence; conditions: Chenopodium album; for pest or weed control at 4 g/ha: 4 g ai/ha; for pest or weed control at 62 g/ha: 62 g ai/ha
Procedure, shortened: as §1

[6] = tested on: morningglory (Ipomoea coccinea); test: Test B pre/postemergence; conditions: Ipomoea; for pest or weed control at 4 g/ha: 4 g ai/ha; for pest or weed control at 62 g/ha: 62 g ai/ha
Procedure, shortened: as §1

[7] = tested on: corn (Zea mays); test: Test B pre/postemergence; conditions: Zea mays
Procedure, shortened: as §1

[8] = tested on: pigweed (Amaranthus retroflexus); test: Test B pre/postemergence; conditions: Amaranthus retroflexus; for pest or weed control at 4 g/ha: 4 g ai/ha; for pest or weed control at 62 g/ha: 62 g ai/ha
Procedure, shortened: as §1

[9] = tested on: crabgrass (Digitaria sanguinalis); test: Test B pre/postemergence; conditions: Digitaria sanguinalis; for pest or weed control at 4 g/ha: 4 g ai/ha; for pest or weed control at 62 g/ha: 62 g ai/ha
Procedure, shortened: as §1

[10] = tested on: giant foxtail (Setaria faberii); test: Test B pre/postemergence; conditions: Setaria faberi; for pest or weed control at 4 g/ha: 4 g ai/ha; for pest or weed control at 62 g/ha: 62 g ai/ha
Procedure, shortened: as §1

[11] = tested on: wheat (Triticum aestivum); test: Test B pre/postemergence; conditions: Triticum aestivum, scale 0 to 100 (0 no effect, 100 complete control); for plant injury at 4 g/ha: 4 g ai/ha; for plant injury at 62 g/ha: 62 g ai/ha
Procedure, shortened: as §1

[12] = tested on: barnyardgrass (Echinochloa crus-galli); test: Test B pre/postemergence; conditions: Echinochloa crus-galli, scale 0 to 100 (0 no effect, 100 complete control); for pest or weed control at 4 g/ha: 4 g ai/ha; for pest or weed control at 62 g/ha: 62 g ai/ha
Procedure, shortened: as §1

[13] = tested on: Surinam grass (Brachiaria decumbens); test: Test B pre/postemergence; conditions: Urochloa decumbens; for pest or weed control at 4 g/ha: 4 g ai/ha; for pest or weed control at 62 g/ha: 62 g ai/ha
Procedure, shortened: as §1

[14] = post-emergence, Postemergence, scale 0 to 100 (0 no effect, 100 complete control), read-out: Cocklebur plant response rating
[15] = post-emergence, Postemergence, scale 0 to 100 (0 no effect, 100 complete control), read-out: Velvetleaf plant response rating
[16] = post-emergence, Postemergence, scale 0 to 100 (0 no effect, 100 complete control), read-out: Lambsquarters plant response rating
[17] = post-emergence, Postemergence, scale 0 to 100 (0 no effect, 100 complete control), read-out: Morningglory plant response rating
[18] = post-emergence, Postemergence, scale 0 to 100 (0 no effect, 100 complete control), read-out: Pigweed plant response rating
[19] = post-emergence, Postemergence, scale 0 to 100 (0 no effect, 100 complete control), read-out: Crabgrass plant response rating
[20] = post-emergence, Postemergence, scale 0 to 100 (0 no effect, 100 complete control), read-out: Foxtail, Giant plant response rating
[21] = post-emergence, Postemergence, read-out: Wheat plant response rating
[22] = pre-emergence, Preemergence, read-out: Plant response rating, Wheat
[23] = post-emergence, Postemergence, read-out: Barnyardgrass plant response rating
[24] = pre-emergence, Preemergence, read-out: Plant response rating, Barnyardgrass
[25] = post-emergence, Postemergence, scale 0 to 100 (0 no effect, 100 complete control), read-out: Surinam Grass plant response rating

Nc1nc(-c2ccc(Cl)cc2)nc(C(=O)O)c1Cl [Compound 65, 6-amino-5-chloro-2-(4-chlorophenyl)-4-pyrimidinecarboxylic acid]
pest or weed control at 4 g/ha ([1]; 4 g ai/ha): 20%
pest or weed control at 62 g/ha ([1]; 62 g ai/ha): 70%
pest or weed control at 4 g/ha ([2]; 4 g ai/ha): 0%
pest or weed control at 62 g/ha ([2]; 62 g ai/ha): 40%
pest or weed control at 4 g/ha [3, 14]: 80%
pest or weed control at 62 g/ha [3, 14]: 100%
pest or weed control at 4 g/ha ([3]; pre-emergence, Preemergence, scale 0 to 100 (0 no effect, 100 complete control), read-out: Plant response rating, Cocklebur): 10%
pest or weed control at 62 g/ha ([3]; pre-emergence, Preemergence, scale 0 to 100, 0 no effect, 100 complete control, read-out: Plant response rating, Cocklebur): 80%
pest or weed control at 4 g/ha [4, 15]: 50%
pest or weed control at 62 g/ha [4, 15]: 90%
pest or weed control at 4 g/ha ([4]; pre-emergence, Preemergence, scale 0 to 100 (0 no effect, 100 complete control), read-out: Plant response rating, Velvetleaf): 0%
pest or weed control at 62 g/ha ([4]; pre-emergence, Preemergence, scale 0 to 100, 0 no effect, 100 complete control, read-out: Plant response rating, Velvetleaf): 70%
pest or weed control at 4 g/ha [5, 16]: 80%
pest or weed control at 62 g/ha [5, 16]: 100%
pest or weed control at 4 g/ha ([5]; pre-emergence, Preemergence, scale 0 to 100 (0 no effect, 100 complete control), read-out: Plant response rating, Lambsquarters): 30%
pest or weed control at 62 g/ha ([5]; pre-emergence, Preemergence, scale 0 to 100, 0 no effect, 100 complete control, read-out: Plant response rating, Lambsquarters): 90%
pest or weed control at 4 g/ha [6, 17]: 70%
pest or weed control at 62 g/ha [6, 17]: 80%
pest or weed control at 4 g/ha ([6]; pre-emergence, Preemergence, scale 0 to 100 (0 no effect, 100 complete control), read-out: Plant response rating, Morningglory): 0%
pest or weed control at 62 g/ha ([6]; pre-emergence, Preemergence, scale 0 to 100, 0 no effect, 100 complete control, read-out: Plant response rating, Morningglory): 30%
plant injury at 4 g/ha ([7]; post-emergence, Postemergence, 4 g ai/ha, scale 0 to 100 (0 no effect, 100 complete control), read-out: Corn plant response rating): 10%
plant injury at 62 g/ha ([7]; post-emergence, Postemergence, 62 g ai/ha, scale 0 to 100 (0 no effect, 100 complete control), read-out: Corn plant response rating): 80%
Corn plant response rating (crop injury, 0 = no effect, 100 = complete kill) at 4 g/ha ([7]; pre-emergence, Preemergence, 4 g ai/ha, scale 0 to 100 (0 no effect, 100 complete control)): 0%
Corn plant response rating (crop injury, 0 = no effect, 100 = complete kill) at 62 g/ha ([7]; pre-emergence, Preemergence, 62 g ai/ha, scale 0 to 100, 0 no effect, 100 complete control): 0%
pest or weed control at 4 g/ha [8, 18]: 70%
pest or weed control at 62 g/ha [8, 18]: 100%
pest or weed control at 4 g/ha ([8]; pre-emergence, Preemergence, scale 0 to 100 (0 no effect, 100 complete control), read-out: Plant response rating, Pigweed): 20%
pest or weed control at 62 g/ha ([8]; pre-emergence, Preemergence, scale 0 to 100, 0 no effect, 100 complete control, read-out: Plant response rating, Pigweed): 100%
pest or weed control at 4 g/ha [9, 19]: 20%
pest or weed control at 62 g/ha [9, 19]: 80%
pest or weed control at 4 g/ha ([9]; pre-emergence, Preemergence, scale 0 to 100 (0 no effect, 100 complete control), read-out: Plant response rating, Crabgrass): 20%
pest or weed control at 62 g/ha ([9]; pre-emergence, Preemergence, scale 0 to 100, 0 no effect, 100 complete control, read-out: Plant response rating, Crabgrass): 70%
pest or weed control at 4 g/ha [10, 20]: 40%
pest or weed control at 62 g/ha [10, 20]: 70%
pest or weed control at 4 g/ha ([10]; pre-emergence, Preemergence, scale 0 to 100 (0 no effect, 100 complete control), read-out: Plant response rating, Foxtail, Giant): 0%
pest or weed control at 62 g/ha ([10]; pre-emergence, Preemergence, scale 0 to 100, 0 no effect, 100 complete control, read-out: Plant response rating, Foxtail, Giant): 30%
plant injury at 4 g/ha [11, 21]: 0%
plant injury at 62 g/ha [11, 21]: 50%
plant injury at 4 g/ha [11, 22]: 20%
plant injury at 62 g/ha [11, 22]: 80%
pest or weed control at 4 g/ha [12, 23]: 20%
pest or weed control at 62 g/ha [12, 23]: 70%
pest or weed control at 4 g/ha [12, 24]: 0%
pest or weed control at 62 g/ha [12, 24]: 40%
pest or weed control at 4 g/ha [13, 25]: 20%
pest or weed control at 62 g/ha [13, 25]: 80%
pest or weed control at 4 g/ha ([13]; pre-emergence, Preemergence, scale 0 to 100 (0 no effect, 100 complete control), read-out: Plant response rating, Surinam Grass): 0%
pest or weed control at 62 g/ha ([13]; pre-emergence, Preemergence, scale 0 to 100, 0 no effect, 100 complete control, read-out: Plant response rating, Surinam Grass): 40%
